Source: patent US20060069132A1, “Azolecarboxamide herbicides” (priority 2004, published 2006)

Key:
barnyardgrass [1] = assay: Test B pre-/postemergence herbicide test; assay type: in vivo, Echinochloa crus-galli; details: for Plant response rating (0 to 100 scale), Barnyardgrass: 0 is no effect, preemergence
Method in brief: (§1)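 Evaluation is visual, comparing treated with control plants on a scale where 0 means no effect and 100 means full control. Treatments were preemergence, or postemergence on seedlings 2–18 cm tall, and held 13–15 days in the greenhouse.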

Surinam grass = assay: Test B pre-/postemergence herbicide test; assay type: in vivo, Urochloa decumbens; details: for Plant response rating (0 to 100 scale), Surinam Grass: 0 is no effect, 100 is complete control, preemergence; for Surinam Grass plant response rating: scale 0 (no effect) to 100 (complete control)
Method in brief: (§2)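 Plants compared with untreated controls 13–15 days post-treatment and given a visual 0–100 injury score. Applications: preemergence to seeds; postemergence at 1- to 4-leaf (2–18 cm); paddy species flooded, 2-leaf stage. Vehicle non-phytotoxic, surfactant included.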

cocklebur = assay: Test B pre-/postemergence herbicide test; assay type: in vivo, Xanthium strumarium; details: for Plant response rating (0 to 100 scale), Cocklebur: 0 is no effect, preemergence
Method in brief: as §1

corn = assay: Test B pre-/postemergence herbicide test; assay type: in vivo, Zea mays; details: for Plant response rating (0 to 100 scale), Corn: 0 is no effect, preemergence
Method in brief: as §2

large crabgrass = assay: Test B pre-/postemergence herbicide test; assay type: in vivo, Digitaria sanguinalis; details: for Plant response rating (0 to 100 scale), Crabgrass, Large: 0 is no effect, preemergence
Method in brief: as §2

giant foxtail = assay: Test B pre-/postemergence herbicide test; assay type: in vivo, Setaria faberi; details: for Plant response rating (0 to 100 scale), Foxtail, Giant: 0 is no effect, preemergence
Method in brief: as §2

lambsquarters = assay: Test B pre-/postemergence herbicide test; assay type: in vivo, Chenopodium album; details: for Lambsquarters plant response rating: scale 0 (no effect) to 100 (complete control)
Method in brief: as §2

morningglory = assay: Test B pre-/postemergence herbicide test; assay type: in vivo, Ipomoea coccinea; details: for Plant response rating (0 to 100 scale), Morningglory: 0 is no effect, 100 is complete control, preemergence; for Morningglory plant response rating: scale 0 (no effect) to 100 (complete control)
Method in brief: as §1

pigweed = assay: Test B pre-/postemergence herbicide test; assay type: in vivo, Amaranthus retroflexus; details: for Plant response rating (0 to 100 scale), Pigweed: 0 is no effect, 100 is complete control, preemergence; for Pigweed plant response rating: scale 0 (no effect) to 100 (complete control)
Method in brief: as §2

velvetleaf = assay: Test B pre-/postemergence herbicide test; assay type: in vivo, Abutilon theophrasti; details: for Plant response rating (0 to 100 scale), Velvetleaf: 0 is no effect, 100 is complete control, preemergence; for Velvetleaf plant response rating: scale 0 (no effect) to 100 (complete control)
Method in brief: as §2

blackgrass = assay: Test B postemergence herbicide test; assay type: in vivo, Alopecurus myosuroides
Method in brief: (§3)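 Each value is a visual 0–100 response rating taken against controls 13 to 15 days after treatment in the greenhouse. Plants received formulated chemical postemergence at the 1- to 4-leaf stage or, in flooded paddy, at the 2-leaf stage.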

wheat = assay: Test B postemergence herbicide test; assay type: in vivo, Triticum aestivum; set-up: key to Wheat plant response rating: 0 = no effect, 100 = complete control
Method in brief: (§4)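 Read-out: visual comparison with controls, scored 0 to 100, where 100 means complete control and 0 no effect. Formulated chemicals were applied postemergence to plants 2–18 cm tall (1- to 4-leaf), or to flooded-paddy plants at the 2-leaf stage, then held 13 to 15 days under glass.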

wild oat = assay: Test B postemergence herbicide test; assay type: in vivo, Avena fatua; details: scale 0 (no effect) to 100 (complete control)
Method in brief: as §4

rice = assay: Test B flooded paddy test; assay type: in vivo, Oryza sativa; details: 1000 g ai/ha, scale 0 to 100 (0 no effect, 100 complete control)
Method in brief: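 Formulated test chemicals went onto postemergence plants measuring 2 to 18 cm, at one to four leaves. For the paddy assay, species had reached two leaves. Scoring took place 13–15 days later by eye, relative to untreated plants, using 0 for no effect up to 100 for full control.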

[2] = test system: small flower umbrella sedge; assay: Test B flooded paddy test; assay type: in vivo, Cyperus difformis; details: 1000 g ai/ha, scale 0 to 100 (0 no effect, 100 complete control)
Method in brief: as §3

ducksalad = assay: Test B flooded paddy test; assay type: in vivo, Heteranthera limosa; details: 1000 g ai/ha, scale 0 to 100 (0 no effect, 100 complete control)
Method in brief: as §3

barnyardgrass [3] = assay: Test B flooded paddy test; assay type: in vivo, Echinochloa crus-galli; details: 1000 g ai/ha, scale 0 to 100 (0 no effect, 100 complete control)
Method in brief: as §3

[4] = 125 g ai/ha, 100 is complete control
[5] = 125 g ai/ha, visual rating, scale 0 (no effect) to 100 (complete control), postemergence
[6] = postemergence, 500 g ai/ha, scale 0 to 100, 0 is no effect, 100 is complete control
[7] = 125 g ai/ha, visual rating, postemergence
[8] = 500 g ai/ha, scale 0 to 100, 0 no effect, 100 complete control, preemergence
[9] = Postemergence, 500 g ai/ha, scale 0 (no effect) to 100 (complete control)

## C#CCNC(=O)c1ccc(F)c(NC(=O)c2nn(C(C)(C)C)nc2CC)c1 [Compound 389]
Barnyardgrass [1]; [4]
  Plant response rating (0 to 100 scale), Barnyardgrass: 0
Barnyardgrass [1]; [5]
  Barnyardgrass plant response rating: 0
Barnyardgrass [1]; [6]
  Barnyardgrass plant response rating: 0
Surinam grass; 125 g ai/ha
  Plant response rating (0 to 100 scale), Surinam Grass: 0
Surinam grass; [7]
  Surinam Grass plant response rating: 0
Surinam grass; Postemergence, 500 g ai/ha
  Surinam Grass plant response rating: 10
cocklebur; [4]
  Plant response rating (0 to 100 scale), Cocklebur: 0
cocklebur; [5]
  Cocklebur plant response rating: 0
cocklebur; [6]
  Cocklebur plant response rating: 0
corn; [4]
  Plant response rating (0 to 100 scale), Corn: 0
corn; [5]
  Corn plant response rating: 0
corn; [6]
  Corn plant response rating: 0
Large crabgrass; [4]
  Plant response rating (0 to 100 scale), Crabgrass, Large: 0
Large crabgrass; [5]
  Crabgrass, Large plant response rating: 0
Large crabgrass; [6]
  Crabgrass, Large plant response rating: 10
Giant foxtail; [4]
  Plant response rating (0 to 100 scale), Foxtail, Giant: 0
Giant foxtail; [5]
  Foxtail, Giant plant response rating: 0
Giant foxtail; [6]
  Foxtail, Giant plant response rating: 10
lambsquarters; 125 g ai/ha, 0 is no effect, 100 is complete control, preemergence
  Plant response rating (0 to 100 scale), Lambsquarters: 0
lambsquarters; [7]
  Lambsquarters plant response rating: 10
lambsquarters; Postemergence, 500 g ai/ha
  Lambsquarters plant response rating: 30
morningglory; 125 g ai/ha
  Plant response rating (0 to 100 scale), Morningglory: 0
morningglory; [7]
  Morningglory plant response rating: 0
morningglory; Postemergence, 500 g ai/ha
  Morningglory plant response rating: 0
pigweed; 125 g ai/ha
  Plant response rating (0 to 100 scale), Pigweed: 0
pigweed; [7]
  Pigweed plant response rating: 20
pigweed; Postemergence, 500 g ai/ha
  Pigweed plant response rating: 40
velvetleaf; 125 g ai/ha
  Plant response rating (0 to 100 scale), Velvetleaf: 0
velvetleaf; [7]
  Velvetleaf plant response rating: 0
velvetleaf; Postemergence, 500 g ai/ha
  Velvetleaf plant response rating: 20
blackgrass; [5]
  Blackgrass plant response rating: 0
blackgrass; [6]
  Blackgrass plant response rating: 10
wheat; [5]
  Wheat plant response rating: 0
wheat; [8]
  Wheat plant response rating: 0
wheat; [9]
  Wheat plant response rating: 0
Wild oat; [7]
  Oat, Wild plant response rating: 0
Wild oat; Postemergence, 500 g ai/ha
  Oat, Wild plant response rating: 0
rice
  Rice plant response rating: 20
[2]
  Sedge, Umbrella plant response rating: 30
ducksalad
  Ducksalad plant response rating: 0
Barnyardgrass [3]
  Barnyardgrass plant response rating: 0

## CCOC(=O)c1cccc(NC(=O)c2nn(C(C)C)nc2C)c1 [Compound 397]
Barnyardgrass [1]; [4]
  Plant response rating (0 to 100 scale), Barnyardgrass: 0
Barnyardgrass [1]; [5]
  Barnyardgrass plant response rating: 0
Barnyardgrass [1]; [9]
  Barnyardgrass plant response rating: 0
Surinam grass; 125 g ai/ha
  Plant response rating (0 to 100 scale), Surinam Grass: 0
Surinam grass; [7]
  Surinam Grass plant response rating: 10
Surinam grass; Postemergence, 500 g ai/ha
  Surinam Grass plant response rating: 10
cocklebur; [4]
  Plant response rating (0 to 100 scale), Cocklebur: 0
cocklebur; [5]
  Cocklebur plant response rating: 0
cocklebur; [9]
  Cocklebur plant response rating: 0
corn; [4]
  Plant response rating (0 to 100 scale), Corn: 0
corn; [5]
  Corn plant response rating: 0
corn; [9]
  Corn plant response rating: 10
Large crabgrass; [4]
  Plant response rating (0 to 100 scale), Crabgrass, Large: 0
Large crabgrass; [5]
  Crabgrass, Large plant response rating: 0
Large crabgrass; [9]
  Crabgrass, Large plant response rating: 10
Giant foxtail; [4]
  Plant response rating (0 to 100 scale), Foxtail, Giant: 0
Giant foxtail; [5]
  Foxtail, Giant plant response rating: 10
Giant foxtail; [9]
  Foxtail, Giant plant response rating: 40
lambsquarters; [7]
  Lambsquarters plant response rating: 0
lambsquarters; Postemergence, 500 g ai/ha
  Lambsquarters plant response rating: 0
morningglory; 125 g ai/ha
  Plant response rating (0 to 100 scale), Morningglory: 0
morningglory; [7]
  Morningglory plant response rating: 0
morningglory; Postemergence, 500 g ai/ha
  Morningglory plant response rating: 10
pigweed; 125 g ai/ha
  Plant response rating (0 to 100 scale), Pigweed: 0
pigweed; [7]
  Pigweed plant response rating: 0
pigweed; Postemergence, 500 g ai/ha
  Pigweed plant response rating: 0
velvetleaf; 125 g ai/ha
  Plant response rating (0 to 100 scale), Velvetleaf: 0
velvetleaf; [7]
  Velvetleaf plant response rating: 10
velvetleaf; Postemergence, 500 g ai/ha
  Velvetleaf plant response rating: 50
blackgrass; [5]
  Blackgrass plant response rating: 0
blackgrass; [9]
  Blackgrass plant response rating: 0
wheat; [5]
  Wheat plant response rating: 0
wheat; [8]
  Wheat plant response rating: 0
wheat; [9]
  Wheat plant response rating: 10
Wild oat; [7]
  Oat, Wild plant response rating: 0
Wild oat; Postemergence, 500 g ai/ha
  Oat, Wild plant response rating: 0
rice
  Rice plant response rating: 10
[2]
  Sedge, Umbrella plant response rating: 70
ducksalad
  Ducksalad plant response rating: 0
Barnyardgrass [3]
  Barnyardgrass plant response rating: 0
